In paper PMC10721898, “C5 methylation confers accessibility, stability and selectivity to picrotoxinin” (Nature Communications, 2023):
Like-named read-outs stand apart in the source and are kept apart here.

Key:
[1] = target: rat GABAA ion channel; test: Non-selective rat GABAA ion channel [3H]TBOB binding (antagonist radioligand) assay, rat cerebral cortex; conditions: [3H]TBOB displacement, n = 1
Protocol: The structurally privileged 5-methyl series was assayed for binding to both GABAA receptors (rat cortex membrane preparations) and RDL (expressed in Xenopus oocytes) and compared directly to the parent PXN (C5-H) series. The parallel series of PXN and 5MePXN analogs allowed us to interrogate the effect of the synthetically-enabling and stabilizing C5 methyl. […]
4. Rat GABAA receptors binding assay
Non-selective rat GABAA ion channel [3H] TBOB binding (Antagonist Radioligand) assay was conducted by Eurofins Pharma Discovery Service of Eurofins Cerep, France.
Compound binding was calculated as a % inhibition of the binding of the radioactive ly labeled ligand [3H] TBOB (t‐[3H]Butylbicycloorthobenzoate) for rat GABAA ion channels.9 A 20.0 mM stock solution was prepared in DMSO from each test compound to evaluate radioligand displacement of [3H] TBOB from rat cerebral cortex GABAA receptors at different concentrations.
The results are expressed as a percent of control specific binding measured specific binding*100 […]
and as a percent inhibition of control specific binding
100 − (measured specific binding*100) […]
obtained in the presence of the test compounds.
The IC50 values (concentration causing a half -maximal inhibition of control specific binding) and Hill coefficients (nH) were determined by non -linear regression analysis of th e competition curves generated with mean replicate values using Hill equation curve fitting […]
where Y = specific binding, A = left asymptote of the curve, D = right asymptote of the curve , C = compound concentration, C 50 = IC50, and nH = slope factor. This analysis was performed using software developed at Cerep (Hill software) and validated by comparison with data generated by th e commercial software SigmaPlot® 4.0 for Windows ® (© 1997 by SPSS Inc.).
The inhibition constants (K i) were calculated using the Cheng Prusoff equation where L = concentration of radioligand in the assay, and KD = affinity of the radioligand for the recept or. A scatchard plot is used to determine the K D.
Supplementary Table 8. IC50 values of test compound
(§1) Compound IC50 (µM) Compound IC50 (µΜ)

[2] = target: T1, Drosophila RDL (Drosophila melanogaster, UniProt P25123); test: RDL receptors assay: two-electrode voltage clamp electrophysiology in Xenopus oocytes; type: cell-based
T1 construct: expressed in transfected cells; host or cells: Xenopus oocytes (Ecocyte, Austin, TX) microinjected with capped cRNA
T1 sequence (P25123 45-606): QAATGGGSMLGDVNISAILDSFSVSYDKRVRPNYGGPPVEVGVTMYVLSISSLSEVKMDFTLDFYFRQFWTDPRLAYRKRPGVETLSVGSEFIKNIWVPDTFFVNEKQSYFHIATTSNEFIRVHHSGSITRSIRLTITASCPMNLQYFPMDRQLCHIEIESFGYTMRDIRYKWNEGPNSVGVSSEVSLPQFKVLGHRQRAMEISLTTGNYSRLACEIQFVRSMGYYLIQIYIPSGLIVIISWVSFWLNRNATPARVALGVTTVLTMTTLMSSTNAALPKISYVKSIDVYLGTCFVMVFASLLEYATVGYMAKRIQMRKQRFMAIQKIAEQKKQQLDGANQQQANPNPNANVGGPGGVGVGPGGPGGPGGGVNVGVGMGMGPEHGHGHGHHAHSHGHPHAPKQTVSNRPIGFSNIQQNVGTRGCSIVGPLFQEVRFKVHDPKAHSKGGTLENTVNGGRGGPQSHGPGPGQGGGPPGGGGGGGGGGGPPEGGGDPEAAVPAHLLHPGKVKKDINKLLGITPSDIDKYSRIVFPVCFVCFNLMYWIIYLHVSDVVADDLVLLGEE
Protocol: 5. RDL receptors binding assay
The Drosophila RDL sequence (NP_01261616.1) was cloned into the pGH19 backbone via Gibson assembly for capped cRNA synthesis using the T7 mMessage mMachine kit (Invitrogen). cRNA samples were stored at - 80 °C until use. Ready to inject Xenopus oocytes were obtained from Ecocyte (Austin, TX) and microinjected using a Nanoinject III (Drummond Scientific) with 4 nL of cRNA (1 μg/μL). The oocytes were then incubated at 16 °C in ND96 storage solution (93.5 mM NaCl, 2 mM KCl, 1.8 mM CaCl 2·2H2O, 2 mM MgCl 2·6H2O, 5 mM HEPES at pH 7.5). Recording were made 1 -6 days post injection.
Electrophysiology experiments were performed using an automated two -electrode voltage clamp set -up (Roboocyte 2, Mutlichannel Systems). Recording head were filled with 3M KCl and gave resistan ce of 100-2000 kΩ in medium. Membrane potential was held at -60 mV and current signal was sampled at 20 kHz.
Experiments were performed at room temperature using Modified Barth’s Saline (MBS) (88 mM NaCl, 1 mM KCl, 2.4 mM NaHCO 3, 15 mM HEPES, 0.3 mM Ca(NO3)2, 0.41 mM CaCl 2, and 0.82 mM MgSO 4·7H2O at pH 7.4). Oocytes were perfused with MBS at 5 mL/min in all assays. GABA and all compounds were dissolved in MBS and a 0.1% DMSO negative control was utilized to correct for any solvent effect.
Initial block potential of each compound was assessed utilizing a pre -incubation method (MBS (30 sec), 10 μM GABA (15 sec), MBS wash (60 sec), compound (60 sec), compound + 10 μM GABA (15 sec), compound (60 sec), compound + 10 μM GABA (15 sec), MBS wash (60 sec) with 10 μM of each test compound. The maximum signal of the second co -application was compared to the initial GABA response to determine the % block and then standardized against the corresponding value of the 0.1% DMSO control. Dose responses were performed for any compound showing >50% block in the initial test using 10, 1, and 0.1 μM. The IC50 values were fit using an inhibitor vs response 4 -parameter fit (GraphPad Prism 8.1.2).
Supplementary Table 9. IC50 values of test compound
as §1

[3] = test system: RDL; conditions: cited from earlier work
[4] = test system: GABAA and RDL receptors; design: method as in PMID 8982503; conditions: cited from earlier work
[5] = Supplementary Table 8 (5MePXN series)
[6] = block of 10 μM GABA response, pre-incubation, -60 mV, Supplementary Table 9 (5MePXN series), n = 4, read-out: IC50
[7] = Supplementary Table 8 (PXN series)
[8] = block of 10 μM GABA response, pre-incubation, -60 mV, Supplementary Table 9 (PXN series), n = 4, read-out: IC50

## CC(C)(O)C1C2OC(=O)C1(C)C1(O)CC3OC34C(=O)OC2C41C (stereo not shown) [5MePTN]
[1]; [5]
  IC50: > 200 µM
[2]; [6]
  IC50: > 10 µM

## CC(C)(O)C1C2OC(=O)C1(C)C1(F)CC3OC34C(=O)OC2C41C (stereo not shown) [6F5MePTN]
[1]; [5]
  IC50: > 200 µM
[2]; [6]
  IC50: 1.55 µM

## C=C(C)C1C2OC(=O)C1(C)C1(F)CC3OC34C(=O)OC2C41C (stereo not shown) [6F5MePXN]
[1]; [5]
  IC50: 14 µM
[2]; [6]
  IC50: 0.593 µM

## CC(C)(F)C1C2OC(=O)C1(C)C1(F)CC3OC34C(=O)OC2C41C (stereo not shown) [6F12F5MePXN]
[1]; [5]
  IC50: > 200 µM
[2]; [6]
  IC50: 0.994 µM

## CC(C)(F)C1C2OC(=O)C1C1(F)CC3OC34C(=O)OC2C14C (stereo not shown) [6F12FPXN]
[1]; [7]
  IC50: 32 µM
[2]; [8]
  IC50: 2.24 µM

## CC(C)C1C2OC(=O)C1(C)C1(F)CC3OC34C(=O)OC2C41C (stereo not shown) [6FH5MePXN]
[1]; [5]
  IC50: 52 µM
[2]; [6]
  IC50: 2.74 µM

## CC(C)C1C2OC(=O)C1C1(F)CC3OC34C(=O)OC2C14C (stereo not shown) [6FHPXN]
[1]; [7]
  IC50: 6.5 µM
[2]; [8]
  IC50: 0.561 µM

## CC(C)(O)C1C2OC(=O)C1C1(F)CC3OC34C(=O)OC2C14C (stereo not shown) [6FPTN]
[1]; [7]
  IC50: 56 µM
[2]; [8]
  IC50: 4.92 µM

## C=C(C)C1C2OC(=O)C1C1(F)CC3OC34C(=O)OC2C14C (stereo not shown) [6FPXN]
[3]
  reported activity at RDL: lose channel blocking ability
[1]; [7]
  IC50: 0.43 µM
[2]; [8]
  IC50: 1.05 µM

## C=C(C)C1C2OC(=O)C1(C)C1(O)CC=C3C(=O)OC2C31C (stereo not shown) [8,9do5MePXN]
[1]; [5]
  IC50: 9.2 µM
[2]; [6]
  IC50: 4.41 µM

## C=C(C)C1C2OC(=O)C1C1(O)CC=C3C(=O)OC2C31C (stereo not shown) [8,9doPXN]
[1]; [7]
  IC50: 0.55 µM
[2]; [8]
  IC50: 2.6 µM

## CC(C)(F)C1C2OC(=O)C1(C)C1(O)CC3OC34C(=O)OC2C41C (stereo not shown) [12F5MePXN]
[1]; [5]
  IC50: 100 µM
[2]; [6]
  IC50: > 10 µM

## CC(C)(F)C1C2OC(=O)C1C1(O)CC3OC34C(=O)OC2C14C (stereo not shown) [12FPXN]
[1]; [7]
  IC50: 5.4 µM
[2]; [8]
  IC50: > 10 µM

## CC(C)(C)C1C2OC(=O)C1(C)C1(O)CC3OC34C(=O)OC2C41C (stereo not shown) [12Me5MePXN]
[1]; [5]
  IC50: 7.4 µM
[2]; [6]
  IC50: 2.88 µM

## CC(C)(C)C1C2OC(=O)C1C1(O)CC3OC34C(=O)OC2C14C (stereo not shown) [12MePXN]
[1]; [7]
  IC50: 0.31 µM
[2]; [8]
  IC50: 0.676 µM

## CC1(C2C3OC(=O)C2(C)C2(O)CC4OC45C(=O)OC3C52C)CC1 (stereo not shown) [Cyp5MePXN]
[1]; [5]
  IC50: 7.7 µM
[2]; [6]
  IC50: 1.61 µM

## CC1(C2C3OC(=O)C2C2(O)CC4OC45C(=O)OC3C25C)CC1 (stereo not shown) [CypPXN]
[1]; [7]
  IC50: 0.39 µM
[2]
  IC50: 0.693 µM

## CC(C)C1C2OC(=O)C1(C)C1(O)CC3OC34C(=O)OC2C41C (stereo not shown) [H5MePXN]
[1]; [5]
  IC50: 23 µM
[2]; [6]
  IC50: > 10 µM

## CC(C)C1C2OC(=O)C1C1(O)CC3OC34C(=O)OC2C14C (stereo not shown) [HPXN]
[1]; [7]
  IC50: 1 µM
[2]
  IC50: 1.07 µM

## CC(C)(O)[C@@H]1[C@H]2OC(=O)[C@@H]1[C@]1(O)C[C@H]3O[C@]34C(=O)O[C@H]2[C@]14C [PTN, picrotin, reference compound]
[3]
  reported activity at RDL: inactivity
[1]; [7]
  IC50: 54 µM
[2]
  IC50: 0.834 µM

## picrodendrin O
[4]
  selectivity index over GABAA: 76 fold
